From US8618046B2, “Treatment of atherosclerosis with cholesterol ester transport protein mimotopes” (Affiris AG, priority 2007, dated 2013)
Where no end group is shown, it is not given here.

Experiments:
rabbit CETP = experiment: Anti-protein ELISA of sera of immunised mice, plates coated with purified rabbit CETP; format: in vivo, mouse; details: sera of immunised mice, purified rabbit CETP
Excerpt: (§1) FIGS. 12a and 12b show the in vivo induction of CETP specific antibodies by the administration of the mimotopes of the invention. Titers to p4073 and its correlation to titers to CETP of selected groups (which show high titers against p4073): gr.4, gr.9, gr.10, gr.14, gr.16-20/gr.1 (KLH), gr.2 (original epitope) as controls. Coating: recombinant GST-CETP or purified rabbit CETP, respectively:
(§2) Sera of each group (5 Balb/c mice each) were combined, diluted 1:100 and tested on ELISA plates coated with recombinant GST-CETP or rabbit CETP, respectively. Detection of bound antibodies was with algG.
(§3) Titers to injected peptides as well as to the original CETP epitope were determined. In addition, for selected sera also immune response to CETP protein was measured (Results see FIGS. 7a to 7d and FIGS. 19a to 19e).

irrelevant peptide-BSA = experiment: Titer to irrelevant peptide in sera of immunised animals (peptide ELISA); format: in vivo, mouse; details: for titer, irrelevant peptide-BSA: FIG. 11, Balb/c mice, 30 μg peptide, Alum as adjuvant, S3, detection αIgG; for titer, p irrelevant: Table 1, mice, sera 2 weeks after 3rd injection
Method: (§4) Balb/c mice/30 μg Peptide, 2 injections in 2 week intervals. S3=2 weeks after 3rd injection. Alum as adjuvant. Titers against original epitope (p4073) induced by injection of mimotopes. Well coating: 50 μl of 1 μM p4073-BSA or 1 μg/ml activated KLH. Detection: αIgG:
(§5) Subcutaneous injections in the flank were performed in week 1, week 3 and week 7 with 30 μg peptide-KLH per mouse. Intradermal injections in the ear were performed in week 1, week 3 and week 6 with 10 μg peptide-KLH per mouse. Sera were taken 2 weeks after the 3rd injection. Vaccine formulation with Alum (always 1 mg per mouse): up to 250 μl, injected into one flank. The Alum formulation with 1 ml per mouse (500 μl into each flank) was in 1×PBS as buffer.
Vaccine formulation with Gerbu Adjuvant 100 (Gerbu Cat. Nr. #3100; always 50 μl adjuvant per mouse): 200 μl, 100 μl injected into each flank comprising 1×HEPES as buffer.
Female Balb/c mice, five mice per group, were subcutaneously immunized with 30 μg peptide coupled to KLH. Control groups were administered KLH or C-[…] (SEQ ID NO. 147). As adjuvant alum was used. […] The in vitro ELISA assay to determine the antibody titer was performed with pooled sera after two vaccinations in a two week interval (S2; see FIGS. 7a to 7d). The wells of the ELISA plate were coated with KLH (positive control), mimotope-BSA conjugate, C-[…] (SEQ ID NO. 147) and a irrelevant peptide-BSA conjugate (negative control). The detection was performed with anti-mouse IgG.

injected peptide-BSA = experiment: Titer to the injected peptide in sera of immunised animals (peptide ELISA); format: in vivo, mouse; details: FIG. 11; Balb/c mice, 30 μg peptide, Alum as adjuvant; S3 = 2 weeks after 3rd injection; detection αIgG
Method: Balb/c mice/30 μg Peptide, 2 injections in 2 week intervals. S3=2 weeks after 3rd injection. Alum as adjuvant. […] Detection: αIgG:
(§6) Inhibiting as well as some non-inhibiting peptides were coupled to KLH and injected into mice (wildtype or CETP-transgenic mice; subcutaneously into the flank or intra-dermaly into the ears) or rabbits (subcutaneously into the flank) together with an appropriate adjuvant (aluminium hydroxide and Gerbu 100 for mice and aluminium hydroxide or CFA/IFA for rabbits).
as §3
Subcutaneous injections in the flank were performed in week 1, week 3 and week 7 with 30 μg peptide-KLH per mouse. Intradermal injections in the ear were performed in week 1, week 3 and week 6 with 10 μg peptide-KLH per mouse. Sera were taken 2 weeks after the 3rd injection. Vaccine formulation with Alum (always 1 mg per mouse): up to 250 μl, injected into one flank. The Alum formulation with 1 ml per mouse (500 μl into each flank) was in 1×PBS as buffer. […]

recombinant GST-CETP = experiment: Anti-protein ELISA of sera of immunised mice, plates coated with recombinant GST-CETP; format: in vivo; details: sera of immunised mice
Excerpt: as §1, §2, §3

original epitope (p4073) = experiment: Titer to the original CETP epitope in sera of immunised animals (peptide ELISA); format: in vivo, mouse; details: for titer, original epitope-BSA: FIG. 11, Balb/c mice, 30 μg peptide, Alum as adjuvant, S3, coating 1 μM p4073-BSA, detection αIgG; for antibody response to the original CETP epitope (in words): coupled to KLH, mice and rabbits
Method: as §4, §6, §3, §5
Vaccine formulation with Gerbu Adjuvant 100 (Gerbu Cat. Nr. #3100; always 50 μl adjuvant per mouse): 200 μl, 100 μl injected into each flank comprising 1×HEPES as buffer. […]

| Substance | titer, irrelevant peptide-BSA (irrelevant peptide-BSA) | titer, injected peptide-BSA (injected peptide-BSA) | titer, original epitope-BSA (original epitope (p4073)) | ELISA signal, rabbit CETP (rabbit CETP; FIG. 12a) | ELISA signal, recombinant GST-CETP (recombinant GST-CETP; FIG. 12a) | further results |
| --- | --- | --- | --- | --- | --- | --- |
| p4366-KLH: C-FGFPSHLIIDWSQSLS coupled to KLH (CFGFPSHLIIDWSQSLS; also: coupled to KLH) | 10 | 4.700 | 3.600 |  |  | ELISA signal, rabbit CETP (rabbit CETP; FIG. 12b): 0.65; ELISA signal, recombinant GST-CETP (recombinant GST-CETP; FIG. 12b): 0.4 |
| C-SANPRDFLETLF (N-terminal Cys; CETP mimotope) [P12-19] |  |  |  |  |  | antibody response to the original CETP epitope (in words) (original epitope (p4073)): induced an immune response to the original CETP epitope in wt mice and in rabbits |
| p4340-KLH: C-PGFPAHVSIDWLQSLS coupled to KLH (CPGFPAHVSIDWLQSLS; also: coupled to KLH) | 10 | 18.100 | 15.640 | 0.21 | 0.49 |  |
| p4353-KLH: C-FGFPAHVSIDWLQSLT coupled to KLH (CFGFPAHVSIDWLQSLT; also: coupled to KLH) | 10 | 11.200 | 8.650 | 0.39 | 0.57 |  |
| p4352-KLH: C-FGFPAHVSIDWLQSIS coupled to KLH (CFGFPAHVSIDWLQSIS; also: coupled to KLH) | 10 | 19.680 | 12.070 | 0.28 | 0.48 |  |
| p4324-KLH: C-FGFPSHLIIDWAQSLS coupled to KLH (CFGFPSHLIIDWAQSLS; also: coupled to KLH) | 10 | 12.570 | 7.600 | 0.28 | 0.58 |  |
| p4228-KLH: P12-21; C-RMFPESFLDTLW coupled to KLH (CRMFPESFLDTLW; also: coupled to KLH) |  |  |  |  |  | titer, p irrelevant (irrelevant peptide-BSA; KLH/Alum i.d. (10 μg peptide)): no titer; titer, p irrelevant (irrelevant peptide-BSA; KLH/Gerbu s.c. (30 μg peptide)): no titer |
| p4223-KLH: F2-9; C-SFLDTLT coupled to KLH (CSFLDTLT; also: coupled to KLH) |  |  |  |  |  | titer, p irrelevant (irrelevant peptide-BSA; Alum s.c. (30 μg peptide)): no titer |
| p4227-KLH: P12-19; C-SANPRDFLETLF coupled to KLH (CSANPRDFLETLF; also: coupled to KLH) |  |  |  |  |  | titer, p irrelevant (irrelevant peptide-BSA; Alum s.c. (30 μg peptide)): no titer; titer, p irrelevant (irrelevant peptide-BSA; KLH/Alum i.d. (10 μg peptide)): no titer; titer, P4073 (FGFPEHLLVDFLQSLS) (original epitope (p4073); Table 1, KLH/Alum i.d. (10 μg peptide), mice, sera 2 weeks after 3rd injection): no titer |
| p4344-KLH: C-FDFPAHVSIDWLQSLS coupled to KLH (CFDFPAHVSIDWLQSLS; also: coupled to KLH) | 10 | 12.200 | 3.580 |  |  | ELISA signal, rabbit CETP (rabbit CETP; FIG. 12b): 0.43; ELISA signal, recombinant GST-CETP (recombinant GST-CETP; FIG. 12b): 0.35 |
| p4188-KLH: F3-38 C-GFLDSLM coupled to KLH (CGFLDSLM; also: coupled to KLH) |  |  |  |  |  | titer, p irrelevant (irrelevant peptide-BSA; Alum s.c. (30 μg peptide)): no titer; titer, p irrelevant (irrelevant peptide-BSA; KLH/Alum i.d. (10 μg peptide)): no titer |
| p4181-KLH: F3-6 C-NFLKTLS coupled to KLH (CNFLKTLS; also: coupled to KLH) |  |  |  |  |  | titer, p irrelevant (irrelevant peptide-BSA; Alum s.c. (30 μg peptide)): no titer; titer, p irrelevant (irrelevant peptide-BSA; KLH/Alum i.d. (10 μg peptide)): no titer |
| p4358-KLH: C-FGFPAHISIDWLQSLS coupled to KLH (CFGFPAHISIDWLQSLS; also: coupled to KLH) | 10 | 16.500 | 12.940 | 0.58 | 0.68 |  |
| p4347-KLH: C-FGFPAHVSIDWLQLLS coupled to KLH (CFGFPAHVSIDWLQLLS; also: coupled to KLH) | 10 | 12.000 | 9.160 | 0.2 | 0.35 |  |
| C-TIYDSFLDSLAS (N-terminal Cys; CETP mimotope) [P12-37] |  |  |  |  |  | antibody response to the original CETP epitope (in words) (original epitope (p4073)): did not induce an antibody response to the original epitope |
| p4351-KLH: C-FGFPAHVSIDWLQYLS coupled to KLH (CFGFPAHVSIDWLQYLS; also: coupled to KLH) | 10 | 2.950 | 2.400 |  |  | ELISA signal, rabbit CETP (rabbit CETP; FIG. 12b): 0.59; ELISA signal, recombinant GST-CETP (recombinant GST-CETP; FIG. 12b): 0.54 |
| C-RMFPESFLDTLW (N-terminal Cys; CETP mimotope) [P12-21] |  |  |  |  |  | antibody response to the original CETP epitope (in words) (original epitope (p4073)): induced an immune response to the original CETP epitope in wt mice and in rabbits |
| p4345-KLH: C-FATPSHLIIDWLQSLS coupled to KLH (CFATPSHLIIDWLQSLS; also: coupled to KLH) | 10 | 8.380 | 1.270 |  |  | ELISA signal, rabbit CETP (rabbit CETP; FIG. 12b): 0.46; ELISA signal, recombinant GST-CETP (recombinant GST-CETP; FIG. 12b): 0.39 |
| p4359-KLH: C-FGFPAHIIIDWLQSLS coupled to KLH (CFGFPAHIIIDWLQSLS; also: coupled to KLH) | 10 | 8.540 | 5.340 | 0.54 | 0.79 |  |
| p4184-KLH: F3-18 C-DFLRTLT coupled to KLH (CDFLRTLT; also: coupled to KLH) |  |  |  |  |  | titer, p irrelevant (irrelevant peptide-BSA; KLH/Alum i.d. (10 μg peptide)): no titer |
| p4341-KLH: C-WGFPAHVSIDWLQSLS coupled to KLH (CWGFPAHVSIDWLQSLS; also: coupled to KLH) | 10 | 10.350 | 5.500 | 0.18 | 0.39 |  |
| p4342-KLH: C-FSFPAHVSIDWLQSLS coupled to KLH (CFSFPAHVSIDWLQSLS; also: coupled to KLH) | 10 | 4.620 | 1.610 |  |  | ELISA signal, rabbit CETP (rabbit CETP; FIG. 12b): 0.41; ELISA signal, recombinant GST-CETP (recombinant GST-CETP; FIG. 12b): 0.38 |
